Laboratory results: US6906205B2, “Spiro and dispiro 1,2,4-trioxolane antimalarials” (Medicines for Malaria Venture MMV, priority 2002, dated 2005)
≈ marks a conversion by molar mass, not a printed value.

Tests used:
[1] = system: P. falciparum K1 strain (Thailand resistant to chloroquine); assay: semiautomated microdilution assay, [3H]-hypoxanthine incorporation, K1 strain; assay type: cell-based, Plasmodium falciparum; conditions: K1 strain, 72 h incubation
Method in brief: (§1)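 Intraerythrocytic stages from unsynchronised stock cultures are exposed to test compounds in a semiautomated microdilution format, and fifty percent inhibitory concentrations are then fitted by logit regression.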

[2] = system: ANKA strain of P. berghei; assay: single dose STI in vivo screen in infected mice; parameters: species or system Plasmodium berghei; conditions: for Activity (%) po / Activity (%) sc / Activity (%) SSVpo: percent reduction in parasitemia day 3 post-infection, mice; for Activity (%) po / Survival (days) po: single 10 mg/kg po in 3% ethanol and 7% Tween 80; for Activity (%) sc / Survival (days) sc: single 10 mg/kg sc in 3% ethanol and 7% Tween 80; for Survival (days) po / Survival (days) sc / Survival (days) SSVpo: untreated control 5.6 ± 0.3; for Activity (%) SSVpo: single po dose in standard suspending vehicle (SSV); for Survival (days) SSVpo: single po dose in SSV
Method in brief: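 Groups of 3-5 Moro SPF or NMRI mice infected with the ANKA strain of P. berghei received a single dose of trioxolane on day one post-infection. The compound was given in 3% ethanol and 7% Tween 80 or in SSV (0.5% w/v CMC, 0.5% v/v benzyl alcohol, 0.4% v/v Tween 80, 0.9% w/v sodium chloride in water). Antimalarial activity was scored as percent reduction in parasitemia on day three and as survival time versus untreated controls. Survival to day 30 counted as cure.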

[3] = system: P. falciparum NF54 strain (sensitive to standard antimalarials); assay: semiautomated microdilution assay, [3H]-hypoxanthine incorporation, NF54 strain; assay type: cell-based, Plasmodium falciparum; conditions: NF54 strain, 72 h incubation
Method in brief: as §1

SMILES | IC50 (ng/ml) K1 [1] | Activity (%) po [2] | Activity (%) sc [2] | Survival (days) po [2] | Survival (days) sc [2] | IC50 (ng/ml) NF54 [3] | Activity (%) SSVpo [2] | Survival (days) SSVpo [2]
c1ccc(C2CCC3(CC2)OOC2(CCC(c4ccccc4)CC2)O3)cc1 (stereo not drawn) [OZ62] | 33 ng/mL (≈ 90.5 nM) | 0/NA/0% | 0/NA/0% | 6.0 days | 5.0 days | 28 ng/mL (≈ 76.8 nM) |  | 
O=C(O)c1ccc(C2(c3ccc(C(=O)O)cc3)OOC3(O2)C2CC4CC(C2)CC3C4)cc1 (stereo not drawn) [OZ135] | >100/>100 ng/ml | 1% | 0% | 5.3/5.3/5.3 days | 5.3/5.3/5.3 days | >100/>100 ng/ml | 0% | 5.3/5.3/5.3 days
O=C(O)c1ccc([C@H]2CC[C@]3(CC2)OOC2(O3)C3CC4CC(C3)CC2C4)cc1 (stereo partly drawn) [OZ165] | 39 ng/mL (≈ 101 nM) | 18% | 9% | 6.3 days | 5.7 days | > 10 ng/mL | 3% | 6.0 days
O=C(O)c1ccccc1C(=O)N1CCC2(CC1)OOC1(O2)C2CC3CC(C2)CC1C3 (stereo not drawn) [OZ132] | 9.8 ng/mL (≈ 23.7 nM) | 38% | 40% | 6.3 days | 6.3 days | > 10 ng/mL | 0% | 5.7 days
C(CNC1CCC2(CC1)OOC1(O2)C2CC3CC(C2)CC1C3)CN1CCOCC1 (stereo not drawn) [OZ161] | 0.40 ng/mL (≈ 0.984 nM) | 59% | 99.96% | 7.0 days | 12.7 days | 0.50 ng/mL (≈ 1.23 nM) | 46% | 6.7 days
CN(C)C[C@H]1CC[C@]2(CC1)OOC1(O2)C2CC3CC(C2)CC1C3 (stereo partly drawn) [OZ232] | 0.30 ng/mL (≈ 0.933 nM) | 76% | 99.94% | 8.0 days | 8.7 days | 0.50 ng/mL (≈ 1.56 nM) | 74% | 7.3 days
O=C(O)c1ccc(OC[C@H]2CC[C@]3(CC2)OOC2(O3)C3CC4CC(C3)CC2C4)cc1 (stereo partly drawn) [OZ176] | 25 ng/mL (≈ 60.3 nM) | 11% | 24% | 7.0 days | 7.0 days | 35 ng/mL (≈ 84.4 nM) | 18% | 7.7 days
c1ccc2c(c1)OCCC21OOC2(O1)C1CC3CC(C1)CC2C3 (stereo not drawn) [OZ134] | 0.88 ng/mL (≈ 2.8 nM) | 72% | 99.95% | 6.3 days | 15.3 days | 1.1 ng/mL (≈ 3.5 nM) | 27% | 6.0 days
CC(=O)OC(C)(C)C(=O)N[C@H]1CC[C@]2(CC1)OOC1(O2)C2CC3CC(C2)CC1C3 (stereo partly drawn) [OZ202] | 6.0 ng/mL (≈ 14.7 nM) | 79% | 74% | 7.0 days | 7.3 days | 7.9 ng/mL (≈ 19.4 nM) | 51% | 7.3 days
Clc1ccc2c(NCCNC3CCC4(CC3)OOC3(O4)C4CC5CC(C4)CC3C5)ccnc2c1 (stereo not drawn) [OZ258] | 5.8 ng/mL (≈ 12 nM) | 75% | 99.95% | 6.0 days | 10.7 days | 5.2 ng/mL (≈ 10.7 nM) | 70% | 6.0 days
CC(=O)OC1(c2ccc(F)cc2)CCC2(CC1)OOC1(O2)C2CC3CC(C2)CC1C3 (stereo not drawn) [OZ69] | 1.6 ng/mL (≈ 3.84 nM) | 56% | 40% | 6.3/NA/6.3 days | 6.3/NA/6.3 days | 1.4 ng/mL (≈ 3.36 nM) |  | 
CN(C)S(=O)(=O)N1CCC2(CC1)OOC1(O2)C2CC3CC(C2)CC1C3 (stereo not drawn) [OZ190] | 0.16 ng/mL (≈ 0.43 nM) | 98% | 2% | 8.7 days | 5.7 days | 1.0 ng/mL (≈ 2.68 nM) | 78% | 7.7 days
CONC(=O)C[C@H]1CC[C@]2(CC1)OOC1(O2)C2CC3CC(C2)CC1C3 (stereo partly drawn) [OZ213] | 2.3 ng/mL (≈ 6.54 nM) | 83% | 85% | 8.0/8.0/8.0 days | 8.0/8.0/8.0 days | 2.8 ng/mL (≈ 7.97 nM) | 74% | 8.0/8.0/8.0 days
C1CCC2(CC1)OOC1(CCCCC1)O2 [OZ01] | >100/>100 ng/ml | 0/NA/0^1% | 0/NA/0^1% | 5.3/NA/5.3^1 days | 5.3/NA/5.3^1 days | >100/>100 ng/ml |  | 
O=C1c2ccccc2C(=O)N1CC1(c2ccccc2)CCC2(CC1)OOC1(O2)C2CC3CC(C2)CC1C3 (stereo not drawn) [OZ97] | 2.2 ng/mL (≈ 4.4 nM) | 59% | 66% | 6.7 days | 7.0 days | 1.8 ng/mL (≈ 3.6 nM) | 2% | 5.3 days
O=C1c2ccccc2C(=O)N1C[C@H]1CC[C@@]2(CC1)OOC1(O2)C2CC3CC(C2)CC1C3 (stereo partly drawn) [OZ167] | 6.7 ng/mL (≈ 15.8 nM) | 0% | 97% | 6.0 days | 7.3 days | > 10 ng/mL | 6% | 6.0 days
O=S(=O)(c1ccc(Cl)cc1)N1CCC2(CC1)OOC1(O2)C2CC3CC(C2)CC1C3 (stereo not drawn) [OZ57] | 3.1 ng/mL (≈ 7.05 nM) | 32% | 98.4% | 6.0 days | 7.7 days | 2.8 ng/mL (≈ 6.36 nM) |  | 
COC(=O)c1ccc(C2(c3ccc(C(=O)OC)c(C(=O)OC)c3)OOC3(O2)C2CC4CC(C2)CC3C4)cc1C(=O)OC (stereo not drawn) [OZ106] | 2.2 ng/mL (≈ 3.79 nM) | 0/0/0% | 0/0/0% | 5.3 days | 5.3 days | 1.7 ng/mL (≈ 2.93 nM) | 0/0/0% | 5.0 days
CN(C)C(=O)N[C@H]1CC[C@]2(CC1)OOC1(O2)C2CC3CC(C2)CC1C3 (stereo partly drawn) [OZ187] | 4.0 ng/mL (≈ 11.4 nM) | 77% | 77% | 7.7 days | 7.0 days | 6.8 ng/mL (≈ 19.4 nM) | 94% | 10.0 days
